The data set in a line: Solubility determination in oil (Table 10). The note with it: thermodynamic from solid; for solubility at 24 h: 25 °C, Obs. Temp. 25 °C; for solubility thermodynamic / solubility: 40 °C, Obs. Temp. 40 °C; for solubility thermodynamic: water, Equilibrium solubility: Water. On the procedure:
A known amount of test substance (˜40 mg) was weighed into the vial, 100 μL of oil was added and heated to 60° C. and then system was slurried to reach equilibrium. […] Extra oil was added into the vial once compound precipitated out and then the system was re-equilibrated at 1000 rpm at room temperature (25° C.). Final concentration was determined by HPLC method as described below in Table 6a and 6b.

[1] abbreviates: oil or lipid, Approximate Solubility in Excipient: Cottonseed oil, Heating Temp. 60 °C.
The mark [2] stands for this setting: oil or lipid, Approximate Solubility in Excipient: Sesame oil, Heating Temp. 60 °C.
The mark [3] stands for this setting: oil or lipid, Approximate Solubility in Excipient: Castor oil, Heating Temp. 40 °C.
Where [4] appears, read: oil or lipid, Approximate Solubility in Excipient: Cottonseed oil, Heating Temp. 40 °C.
Where [5] appears, read: oil or lipid, Approximate Solubility in Excipient: Sesame oil, Heating Temp. 40 °C.
[6] abbreviates: organic solvent or mixture, Approximate Solubility in Excipient: Ethanol, Heating Temp. 40 °C.

≈ marks a conversion by molar mass, not a printed value.

What is called solubility is how much of the substance goes into solution per volume. Broadly, the thermodynamic solubility is the concentration in solution at equilibrium with solid. Take `CCCCCCCCCCCC(=O)OCOc1ccc2c3c1O[C@H]1C(=O)CC[C@@]4(O)C(C2)N(CC2CC2)CC[C@]314` [Compound 48, (((4aS,7aR,12bS)-3-(cyclopropylmethyl)-4a-hydroxy-7-oxo-2,3,4,4a,5,6,7,7a-octahydro-1H-4,12-methanobenzofuro[3,2-e]isoquinolin-9-yl)oxy)methyl dodecanoate]: the solubility at 24 h under setting [1] was greater than 410 mg/mL and the solubility at 24 h under setting [2] was greater than 405 mg/mL. The thermodynamic solubility (Heating Temp. 40 °C) was 0.003 mg/mL (≈ 0.00542 mM).

On to `C=C1CC[C@@]2(O)C3Cc4ccc(OC(=O)CCCCCCC/C=C\C/C=C\CCCCC)c5c4[C@@]2(CCN3CC2CC2)[C@H]1O5` [Compound 37, (4aS,7aS,12bS)-3-(cyclopropylmethyl)-4a-hydroxy-7-methylene-2,3,4,4a,5,6,7,7a-octahydro-1H-4,12-methanobenzofuro[3,2-e]isoquinolin-9-yl (9Z,12Z)-octadeca-9,12-dienoate], for which the solubility at 24 h lay within 68.5 to 82 mg/mL (≈ 114 to 136 mM) under setting [1] and 80 to 102 mg/mL (≈ 133 to 169 mM) under setting [2]. For the same compound, the solubility is greater than 226 mg/mL under setting [3], greater than 405 mg/mL under setting [4], greater than 408 mg/mL under setting [5] and 75 to 90 mg/mL (≈ 125 to 150 mM) under setting [6]. Also, the solubility (thermodynamic) (Heating Temp. 40 °C) is 0.002 mg/mL (≈ 0.00332 mM).

`C=C1CC[C@@]2(O)C3Cc4ccc(OC(=O)OCCCCCCCCCCCCCCCCCC)c5c4[C@@]2(CCN3CC2CC2)[C@H]1O5` [Compound 33, (4aS,7aS,12bS)-3-(cyclopropylmethyl)-4a-hydroxy-7-methylene-2,3,4,4a,5,6,7,7a-octahydro-1H-4,12-methanobenzofuro[3,2-e]isoquinolin-9-yl octadecyl carbonate] registered a solubility at 24 h under setting [1] of less than 50 mg/mL and a solubility at 24 h under setting [2] of less than 51 mg/mL. The compound further displayed a thermodynamic solubility (Heating Temp. 40 °C) of less than 0.001 mg/mL.

As for `CC(C)(C)CC(=O)Oc1ccc2c3c1O[C@H]1C(=O)CC[C@@]4(O)C(C2)N(CC2CC2)CC[C@]314` [Compound 42, (4aS,7aR,12bS)-3-(cyclopropylmethyl)-4a-hydroxy-7-oxo-2,3,4,4a,5,6,7,7a-octahydro-1H-4,12-methanobenzofuro[3,2-e]isoquinolin-9-yl 3,3-dimethylbutanoate], the solubility is less than 51 mg/mL under setting [4]; less than 26 mg/mL under setting [1]; less than 52 mg/mL under setting [5]; less than 25.8 mg/mL under setting [2]; 78 to 93 mg/mL (≈ 177 to 212 mM) under setting [6]. The solubility (thermodynamic) by setting is: (Heating Temp. 40 °C) 0.245 mg/mL (≈ 0.557 mM); (Heating Temp. 60 °C) 0.068 mg/mL (≈ 0.155 mM).

Turning to `C=C1CC[C@@]2(O)C3Cc4ccc(OC(=O)OCCCCCCCCCC)c5c4[C@@]2(CCN3CC2CC2)[C@H]1O5` [Compound 18, (4aS,7aS,12bS)-3-(cyclopropylmethyl)-4a-hydroxy-7-methylene-2,3,4,4a,5,6,7,7a-octahydro-1H-4,12-methanobenzofuro[3,2-e]isoquinolin-9-yl decyl carbonate], the solubility at 24 h was greater than 400 mg/mL under setting [1] and greater than 402 mg/mL under setting [2]. Moreover, the solubility was greater than 403 mg/mL under setting [4], greater than 403 mg/mL under setting [5] and greater than 209 mg/mL under setting [6]. In addition, for the setting “Heating Temp. 40 °C”, the thermodynamic solubility is less than 0.0002 mg/mL.

Take `CCCCCCCCCCCCCCCCCC(=O)Oc1ccc2c3c1O[C@H]1C(=O)CC[C@@]4(O)C(C2)N(CC2CC2)CC[C@]314` [Compound 54, (4aS,7aR,12bS)-3-(cyclopropylmethyl)-4a-hydroxy-7-oxo-2,3,4,4a,5,6,7,7a-octahydro-1H-4,12-methanobenzofuro[3,2-e]isoquinolin-9-yl stearate]: the solubility at 24 h reads like this: under setting [1], less than 51 mg/mL; under setting [2], less than 50 mg/mL. For the same compound, the solubility (thermodynamic) (Heating Temp. 40 °C) is less than 0.001 mg/mL.

`CCCCCCCC/C=C\CCCCCCCCCCCC(=O)Oc1ccc2c3c1O[C@H]1C(=O)CC[C@@]4(O)C(C2)N(CC2CC2)CC[C@]314` [Compound 22, (4aS,7aR,12bS)-3-(cyclopropylmethyl)-4a-hydroxy-7-oxo-2,3,4,4a,5,6,7,7a-octahydro-1H-4,12-methanobenzofuro[3,2-e]isoquinolin-9-yl (Z)-docos-13-enoate]: the solubility at 24 h under setting [1] was 67 to 80 mg/mL (≈ 101 to 121 mM) and the solubility at 24 h under setting [2] fell in the range of 67 to 80 mg/mL (≈ 101 to 121 mM). Moreover, the solubility was greater than 406 mg/mL under setting [1]; greater than 402 mg/mL under setting [2]; greater than 398 mg/mL (organic solvent or mixture, Approximate Solubility in Excipient: Ethanol, Heating Temp. 60 °C). Also, the thermodynamic solubility (Heating Temp. 60 °C) was 0.0314 mg/mL (≈ 0.0474 mM).

As to `CCCCCCCC/C=C/CCCCCCCC(=O)OCOc1ccc2c3c1O[C@H]1C(=O)CC[C@@]4(O)C(C2)N(CC2CC2)CC[C@]314` [Compound 26, (((4aS,7aR,12bS)-3-(cyclopropylmethyl)-4a-hydroxy-7-oxo-2,3,4,4a,5,6,7,7a-octahydro-1H-4,12-methanobenzofuro[3,2-e]isoquinolin-9-yl)oxy)methyl (E)-octadec-9-enoate], the solubility at 24 h is 204 to 239 mg/mL (≈ 321 to 376 mM) under setting [1] and less than 354 mg/mL under setting [2]. Where the note is “Heating Temp. 40 °C”, this compound registered a thermodynamic solubility of less than 0.001 mg/mL.

On to `C=C1CC[C@@]2(O)C3Cc4ccc(OC(=O)OCCCCCCCCCCCCCCCCCCCC)c5c4[C@@]2(CCN3CC2CC2)[C@H]1O5` [Compound 28, (4aS,7aS,12bS)-3-(cyclopropylmethyl)-4a-hydroxy-7-methylene-2,3,4,4a,5,6,7,7a-octahydro-1H-4,12-methanobenzofuro[3,2-e]isoquinolin-9-yl icosyl carbonate], for which the solubility at 24 h is less than 50.2 mg/mL under setting [1] and less than 50.6 mg/mL under setting [2]. The same compound registered a solubility (thermodynamic) (Heating Temp. 40 °C) of less than 0.001 mg/mL.

In the case of `CCCCCCCCCCCCCCCC(=O)OCOc1ccc2c3c1O[C@H]1C(=O)CC[C@@]4(O)C(C2)N(CC2CC2)CC[C@]314` [Compound 49, (((4aS,7aR,12bS)-3-(cyclopropylmethyl)-4a-hydroxy-7-oxo-2,3,4,4a,5,6,7,7a-octahydro-1H-4,12-methanobenzofuro[3,2-e]isoquinolin-9-yl)oxy)methyl hexadecanoate], the solubility at 24 h is less than 50 mg/mL under setting [1] and less than 51 mg/mL under setting [2]. Besides, the solubility (thermodynamic) (Heating Temp. 40 °C) is 0.028 mg/mL (≈ 0.0459 mM).

Regarding `CCCCCCCCCCCCCCCCCCCC(=O)Oc1ccc2c3c1O[C@H]1C(=O)CC[C@@]4(O)C(C2)N(CC2CC2)CC[C@]314` [Compound 50, (4aS,7aR,12bS)-3-(cyclopropylmethyl)-4a-hydroxy-7-oxo-2,3,4,4a,5,6,7,7a-octahydro-1H-4,12-methanobenzofuro[3,2-e]isoquinolin-9-yl icosanoate], the solubility at 24 h reads like this: under setting [1], less than 51 mg/mL; under setting [2], less than 52 mg/mL. This compound registered a solubility (thermodynamic) (Heating Temp. 40 °C) of less than 0.001 mg/mL.

Regarding `C=C1CC[C@@]2(O)C3Cc4ccc(OC(=O)CCCCCCCCCCCCCCCCC)c5c4[C@@]2(CCN3CC2CC2)[C@H]1O5` [Compound 12, (4aS,7aS,12bS)-3-(cyclopropylmethyl)-4a-hydroxy-7-methylene-2,3,4,4a,5,6,7,7a-octahydro-1H-4,12-methanobenzofuro[3,2-e]isoquinolin-9-yl stearate], the solubility at 24 h under setting [1] was less than 51 mg/mL and the solubility at 24 h under setting [2] was less than 50 mg/mL. The solubility is 100 to 120 mg/mL (≈ 165 to 198 mM) under setting [4]; greater than 398 mg/mL under setting [1]; 70 to 95 mg/mL (≈ 116 to 157 mM) under setting [5]; greater than 411 mg/mL under setting [2]; 65 to 75 mg/mL (≈ 107 to 124 mM) under setting [6]. In addition, the thermodynamic solubility (Heating Temp. 40 °C) is 0.043 mg/mL (≈ 0.071 mM).

Take `CCCCCCCCCCCCCCC(=O)Oc1ccc2c3c1O[C@H]1C(=O)CC[C@@]4(O)C(C2)N(CC2CC2)CC[C@]314` [Compound 58, (4aS,7aR,12bS)-3-(cyclopropylmethyl)-4a-hydroxy-7-oxo-2,3,4,4a,5,6,7,7a-octahydro-1H-4,12-methanobenzofuro[3,2-e]isoquinolin-9-yl pentadecanoate]: the solubility at 24 h is, setting by setting: under setting [1], 102 to 204 mg/mL (≈ 180 to 360 mM); under setting [2], 99.4 to 199 mg/mL (≈ 176 to 351 mM). For the setting “Heating Temp. 40 °C”, the thermodynamic solubility came to 0.0014 mg/mL (≈ 0.00247 mM).

On to `CCCCCCCCCCCCCCCCOC(=O)OCOc1ccc2c3c1O[C@H]1C(=O)CC[C@@]4(O)C(C2)N(CC2CC2)CC[C@]314` [Compound 47, (((4aS,7aR,12bS)-3-(cyclopropylmethyl)-4a-hydroxy-7-oxo-2,3,4,4a,5,6,7,7a-octahydro-1H-4,12-methanobenzofuro[3,2-e]isoquinolin-9-yl)oxy)methyl hexadecyl carbonate], for which the solubility at 24 h by setting is: under setting [1], greater than 406 mg/mL; under setting [2], greater than 405 mg/mL. For the setting “Heating Temp. 40 °C”, this compound returned a thermodynamic solubility of less than 0.001 mg/mL.

Regarding `C=C1CC[C@@]2(O)C3Cc4ccc(OC(=O)CCC5CCCC5)c5c4[C@@]2(CCN3CC2CC2)[C@H]1O5` [Compound 39, (4aS,7aS,12bS)-3-(cyclopropylmethyl)-4a-hydroxy-7-methylene-2,3,4,4a,5,6,7,7a-octahydro-1H-4,12-methanobenzofuro[3,2-e]isoquinolin-9-yl 3-cyclopentylpropanoate], the solubility at 24 h by setting is: under setting [1], 104 to 139 mg/mL (≈ 224 to 300 mM); under setting [2], 106 to 141 mg/mL (≈ 229 to 304 mM). Moreover, the solubility by setting is: under setting [3], greater than 218 mg/mL; under setting [4], 225 to 402 mg/mL (≈ 485 to 868 mM); under setting [5], greater than 400 mg/mL; under setting [6], 150 to 200 mg/mL (≈ 324 to 431 mM). For the same compound, the thermodynamic solubility (Heating Temp. 40 °C) stood at 0.018 mg/mL (≈ 0.0388 mM).

The values are drawn from patent US20190308988A1, “OPIOID RECEPTOR ANTAGONIST PRODRUGS” (Nirsum Laboratories, Inc., priority 2017, published 2019).
